This experiment concerns the target T1, recombinant guanylate cyclase reporter cell line (Rattus norvegicus, UniProt P19686+P20595).
T1 construct: expressed in transfected cells
T1 sequence (P20595 1-619): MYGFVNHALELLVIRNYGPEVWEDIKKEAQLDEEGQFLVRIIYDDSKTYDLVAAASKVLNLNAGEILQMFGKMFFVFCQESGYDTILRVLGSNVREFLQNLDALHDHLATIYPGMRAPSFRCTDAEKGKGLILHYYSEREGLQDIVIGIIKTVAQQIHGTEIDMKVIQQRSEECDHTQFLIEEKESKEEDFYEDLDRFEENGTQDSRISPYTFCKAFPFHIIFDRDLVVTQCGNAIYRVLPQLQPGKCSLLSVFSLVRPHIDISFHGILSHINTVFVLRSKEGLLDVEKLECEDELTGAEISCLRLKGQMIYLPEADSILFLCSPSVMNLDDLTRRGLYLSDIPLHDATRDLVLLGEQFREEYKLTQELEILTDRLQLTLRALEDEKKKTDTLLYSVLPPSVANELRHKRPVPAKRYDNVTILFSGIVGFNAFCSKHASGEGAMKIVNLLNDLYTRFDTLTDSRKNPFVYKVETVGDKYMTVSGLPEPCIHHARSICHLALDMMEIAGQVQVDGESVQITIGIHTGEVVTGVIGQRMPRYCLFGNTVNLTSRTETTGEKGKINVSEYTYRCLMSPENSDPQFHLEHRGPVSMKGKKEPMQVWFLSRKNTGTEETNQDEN
T1 sequence (P19686 1-690): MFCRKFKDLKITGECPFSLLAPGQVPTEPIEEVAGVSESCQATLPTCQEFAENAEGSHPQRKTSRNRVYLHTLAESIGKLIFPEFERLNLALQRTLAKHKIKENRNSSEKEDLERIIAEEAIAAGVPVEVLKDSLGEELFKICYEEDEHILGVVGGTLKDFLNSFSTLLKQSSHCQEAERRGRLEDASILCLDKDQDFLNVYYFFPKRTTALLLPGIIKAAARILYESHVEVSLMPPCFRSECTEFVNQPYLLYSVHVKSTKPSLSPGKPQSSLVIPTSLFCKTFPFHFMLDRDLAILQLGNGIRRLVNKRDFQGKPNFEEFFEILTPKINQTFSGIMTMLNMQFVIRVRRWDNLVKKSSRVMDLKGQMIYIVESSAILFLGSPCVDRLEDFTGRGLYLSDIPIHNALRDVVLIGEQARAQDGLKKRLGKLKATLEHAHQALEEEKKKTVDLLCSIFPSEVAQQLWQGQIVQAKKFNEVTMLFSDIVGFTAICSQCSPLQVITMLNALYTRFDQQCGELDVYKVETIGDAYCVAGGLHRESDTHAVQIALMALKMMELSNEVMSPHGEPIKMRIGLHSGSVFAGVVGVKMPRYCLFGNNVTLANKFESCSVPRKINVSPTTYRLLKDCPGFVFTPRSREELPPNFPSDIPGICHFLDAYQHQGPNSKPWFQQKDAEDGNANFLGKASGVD
In words: B-2. Action on recombinant guanylate cyclase reporter cell line. It is filed as cell-based. The conditions noted are these: MEC = minimal effective concentration; in some cases mean values from individual determinations. The essentials: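 MEC values, meaning the lowest concentration producing a detectable response, were taken from a recombinant cyclase reporter cell assay. Where repeated, individual determinations were averaged.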

Counter-ions that a name gives are not always drawn.

For `CCC(C)(N)CNC(=O)c1c(C)nc2c(OCc3c(F)cccc3F)cc(C(F)F)cn12` (single isomer, unassigned; enantiomer a) [Example 288, ent-N-(2-amino-2-methylbutyl)-8-[(2,6-difluorobenzyl)oxy]-6-(difluoromethyl)-2-methylimidazo[1,2-a]pyridine-3-carboxamide (Enantiomer A)], the MEC came out at 0.3 µM. The result for `Cc1nc2c(OCc3c(F)cccc3F)cc(C(F)F)cn2c1C(=O)NCC(C)(N)CF` (single isomer, unassigned; enantiomer a) [Example 291, ent-N-(2-amino-3-fluoro-2-methylpropyl)-8-[(2,6-difluorobenzyl)oxy]-6-(difluoromethyl)-2-methylimidazo[1,2-a]pyridine-3-carboxamide (Enantiomer A)] reads 1.0 µM. Take `Cc1cc(OCc2c(F)cccc2F)c2nc(C)c(C(=O)NCC(C)(N)Cc3ccccn3)n2c1` (single isomer, unassigned; enantiomer a) [Example 298, ent-N-[2-amino-2-methyl-3-(pyridin-2-yl)propyl]-8-[(2,6-difluorobenzyl)oxy]-2,6-dimethyl-imidazo[1,2-a]pyridine-3-carboxamide (Enantiomer A)]: the MEC was determined as 0.10 µM. Consider `CCC(C)(N)CNC(=O)c1c(C)nc2c(OCc3c(F)ccc(F)c3F)cc(C)cn12` (single isomer, unassigned; enantiomer a) [Example 300, ent-N-(2-amino-2-methylbutyl)-2,6-dimethyl-8-[(2,3,6-trifluorobenzyl)oxy]imidazo[1,2-a]pyridine-3-carboxamide (Enantiomer A) Hydrochloride], for which the MEC amounted to 0.10 µM.

As for `Cc1cc(OCc2c(F)cccc2F)c2nc(C)c(C(=O)NC3CCC3N)n2c1` (single isomer, unassigned; enantiomer a) [Example 328, ent-N-(2-aminocyclobutyl)-8-[(2,6-difluorobenzyl)oxy]-2,6-dimethylimidazo[1,2-a]pyridine-3-carboxamide (Enantiomer A)], the MEC was 3.00 µM.

For the compound `Cc1cc(OCc2c(F)cccc2F)c2nc(C)c(C(=O)NC3CCC3(C)N)n2c1` (single isomer, unassigned; enantiomer a) [Example 332, ent-N-[2-amino-2-methylcyclobutyl]-8-[(2,6-difluorobenzyl)oxy]-2,6-dimethylimidazo[1,2-a]pyridine-3-carboxamide (Enantiomer A)], the MEC is 1.00 µM.

As for `Cc1cc(OCc2c(F)cccc2F)c2nc(C)c(C(=O)NC3(C)CCC3(C)N)n2c1` (single isomer, unassigned; enantiomer a) [Example 336, ent-N-[(2-amino-1,2-dimethylcyclobutyl]-8-[(2,6-difluorobenzyl)oxy]-2,6-dimethylimidazo[1,2-a]pyridine-3-carboxamide (Enantiomer A)], the MEC was determined as 0.30 µM.

Consider `CCC(C)(N)CNC(=O)c1c(C)nc2c(OCc3c(F)cccc3F)cc(C)cn12.Cl` (single isomer, unassigned; enantiomer a) [Example 357, ent-N-(2-amino-2-methylbutyl)-8-[(2,6-difluorobenzyl)oxy]-2,6-dimethylimidazo[1,2-a]pyridine-3-carboxamide Hydrochloride (Enantiomer A)], for which the MEC was found to be 0.03 µM.

`Cc1cc(OCc2c(F)cccc2F)c2nc(C)c(C(=O)NCC(N)C#N)n2c1` (single isomer, unassigned; enantiomer a) [Example 401, ent-N-(2-amino-2-cyanoethyl)-8-[(2,6-difluorobenzyl)oxy]-2,6-dimethylimidazo[1,2-a]pyridine-3-carboxamide (Enantiomer A)]: the MEC stood at 1.00 µM. As to `Cc1cc(OCc2c(F)cccc2F)c2nc(C)c(C(=O)NCC(C)(N)CCC(F)(F)F)n2c1` (single isomer, unassigned; enantiomer a) [Example 408, ent-N-(2-amino-5,5,5-trifluoro-2-methylpentyl)-8-[(2,6-difluorobenzyl)oxy]-2,6-dimethylimidazo[1,2-a]pyridine-3-carboxamide (Enantiomer A)], the MEC came out at 0.10 µM.

On to `Cc1cc(OCc2c(F)ccc(F)c2F)c2nc(C)c(C(=O)NCC(C)(N)CCC(F)(F)F)n2c1` (single isomer, unassigned; enantiomer a) [Example 410, ent-N-(2-amino-5,5,5-trifluoro-2-methylpentyl)-2,6-dimethyl-8-[(2,3,6-trifluorobenzyl)oxy]imidazo[1,2-a]pyridine-3-carboxamide (Enantiomer A)], for which the MEC is 0.10 µM.

Regarding `Cc1nc2c(OCc3c(F)cccc3F)cccn2c1C(=O)NC(CN)CC(F)(F)F` (single isomer, unassigned; enantiomer b) [Example 3, ent-N-(1-Amino-4,4,4-trifluorobutan-2-yl)-8-[(2,6-difluorobenzyl)oxy]-2-methylimidazo[1,2-a]-pyridine-3-carboxamide (Enantiomer B)], the MEC came to 0.30 µM. Regarding `Cc1nc2c(OCc3c(F)cccc3F)cccn2c1C(=O)NC(CN)CCCC(F)(F)F` (single isomer, unassigned; enantiomer b) [Example 6, ent-N-(1-Amino-6,6,6-trifluorohexan-2-yl)-8-[(2,6-difluorobenzyl)oxy]-2-methylimidazo[1,2-a]-pyridine-3-carboxamide (Enantiomer B)], the MEC is 0.23 µM. Regarding `Cc1nc2c(OCc3c(F)cccc3F)cccn2c1C(=O)NC(CN)c1ccc(F)cc1` (single isomer, unassigned; enantiomer b) [Example 10, ent-N-[2-Amino-1-(4-fluorophenyl)ethyl]-8-[(2,6-difluorobenzyl)oxy]-2-methylimidazo[1,2-a]-pyridine-3-carboxamide (Enantiomer B)], the MEC came out at 0.30 µM.

For the compound `Cc1nc2c(OCc3c(F)cccc3F)cccn2c1C(=O)NC(CN)c1ccc(Cl)cc1` (single isomer, unassigned; enantiomer b) [Example 15, ent-N-[2-Amino-1-(4-chlorophenyl)ethyl]-8-[(2,6-difluorobenzyl)oxy]-2-methylimidazo[1,2-a]-pyridine-3-carboxamide (Enantiomer B)], the MEC was found to be 0.53 µM. As to `Cc1nc2c(OCc3c(F)cccc3F)cccn2c1C(=O)NC(CN)c1ccccc1` (single isomer, unassigned; enantiomer b) [Example 18, ent-N-(2-Amino-1-phenylethyl)-8-[(2,6-difluorobenzyl)oxy]-2-methylimidazo[1,2-a]pyridine-3-carboxamide (Enantiomer B)], the MEC was 0.55 µM. Take `Cc1nc2c(OCc3c(F)cccc3F)cccn2c1C(=O)NC(C)CN` (single isomer, unassigned; enantiomer b) [Example 20, ent-N-(1-Aminopropan-2-yl)-8-[(2,6-difluorobenzyl)oxy]-2-methylimidazo[1,2-a]pyridine-3-carboxamide (Enantiomer B)]: the MEC came out at 1.00 µM.

For the compound `Cc1nc2c(OCc3c(F)cccc3F)cc(Cl)cn2c1C(=O)NCC(C)N` (single isomer, unassigned; enantiomer b) [Example 30, ent-N-(2-Aminopropyl)-6-chloro-8-[(2,6-difluorobenzyl)oxy]-2-methylimidazo[1,2-a]pyridine-3-carboxamide (Enantiomer B)], the MEC came to 0.30 µM. Consider `COCC(N)CNC(=O)c1c(C)nc2c(OCc3c(F)cccc3F)cccn12` (single isomer, unassigned; enantiomer b) [Example 248, ent-N-(2-Amino-3-methoxypropyl)-8-[(2,6-difluorobenzyl)oxy]-2-methylimidazo[1,2-a]pyridine-3-carboxamide (Enantiomer B)], for which the MEC is 1.00 µM. The value for `Cc1cc(OC(C)c2c(F)cccc2F)c2nc(C)c(C(=O)NCC(C)(C)N)n2c1` (single isomer, unassigned; enantiomer b) [Example 256, ent-N-(2-Amino-2-methylpropyl)-8-[1-(2,6-difluorophenyl)ethoxy]-2,6-dimethylimidazo[1,2-a]-pyridine-3-carboxamide (Enantiomer B)] was 3.00 µM.

The values are drawn from patent publication US9624214B2, “Amino-substituted imidazo[1,2-a]pyridinecarboxamides and their use” (BAYER PHARMA AKTIENGESELLSCHAFT, priority 2012, dated 2017).
